Experimental data published in paper PMC5736709, “Unravelling the specificity and mechanism of sialic acid recognition by the gut symbiont Ruminococcus gnavus” (Nature Communications, 2017).
Several values for one entry are separate records, joined by “and”; a condition that tells them apart may be missing. Equal entries are not always repeated. Entries after “also recorded” stand apart in the source; their conditions may differ.

How the values were obtained:
RgCBM40 R128A/R204A = target: T1, RgCBM40 R128A/R204A (Mediterraneibacter gnavus (Ruminococcus gnavus), UniProt A7B557, R128A/R204A); test: ITC of sialoglycans binding to RgCBM40 double mutant R128A/R204A; parameters: species or system Ruminococcus gnavus ATCC 29149
T1 sequence (A7B557 50-237 R128A/R204A): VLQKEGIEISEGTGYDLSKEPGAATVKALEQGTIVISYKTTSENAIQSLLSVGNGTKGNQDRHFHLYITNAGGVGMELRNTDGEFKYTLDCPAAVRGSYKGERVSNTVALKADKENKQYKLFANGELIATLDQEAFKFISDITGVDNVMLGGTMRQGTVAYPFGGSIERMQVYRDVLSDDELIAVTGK
Protocol: (§1) Site directed mutagenesis of RgGH33 to introduce the D282A mutation in the active site was carried out using the QuikChange kit, following the manufacturer’s instructions, Agilent (Santa Clara, CA, USA). Site-directed mutants of RgCBM40; I95A, Y116A, E126A, R128A, R204A and double mutant R128A/R204A, were obtained from NZyTech (Lisbon, Portugal). The primers are listed in Supplementary Table 4. The integrity of the RgGH33 and RgCBM40 mutants was checked by circular dichroism (CD).
(§2) Isothermal titration calorimetry (ITC) experiments were performed using the PEAQ-ITC system (Malvern, Malvern, UK) with a cell volume of 200 µl. Prior to titration protein samples were exhaustively dialysed into PBS. The ligand was dissolved in the dialysis buffer. The cell protein concentration was 115 µM (except for mutant I95A where it was 173 µM and the wild-type interaction with 6′SL where it was 230 µM) and the syringe ligand concentration was 10 mM (25 mM for Neu5Ac). Controls with titrant (sugar) injected into buffer only were subtracted from the data. Analysis was performed using Malvern software, using a single-binding site model. The stoichiometry of binding sites was set to 1.0 as this was evident from the crystal structure. Quantitative and most qualitative experiments were carried out in triplicate.

RgCBM40 R128A = target: T2, RgCBM40 R128A (Mediterraneibacter gnavus (Ruminococcus gnavus), UniProt A7B557, R128A); test: ITC of sialoglycans binding to RgCBM40 mutant R128A; parameters: species or system Ruminococcus gnavus ATCC 29149
T2 sequence (A7B557 50-237 R128A): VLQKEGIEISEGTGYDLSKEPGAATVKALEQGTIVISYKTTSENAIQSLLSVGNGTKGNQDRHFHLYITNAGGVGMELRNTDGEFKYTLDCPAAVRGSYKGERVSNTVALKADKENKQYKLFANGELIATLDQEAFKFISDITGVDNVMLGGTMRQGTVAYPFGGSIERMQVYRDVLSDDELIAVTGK
Protocol: as §1, §2

RgCBM40 Y210A = target: T3, RgCBM40 Y210A (Mediterraneibacter gnavus (Ruminococcus gnavus), UniProt A7B557, Y210A); test: ITC of sialoglycans binding to RgCBM40 mutant Y210A; parameters: species or system Ruminococcus gnavus ATCC 29149
T3 sequence (A7B557 50-237 Y210A): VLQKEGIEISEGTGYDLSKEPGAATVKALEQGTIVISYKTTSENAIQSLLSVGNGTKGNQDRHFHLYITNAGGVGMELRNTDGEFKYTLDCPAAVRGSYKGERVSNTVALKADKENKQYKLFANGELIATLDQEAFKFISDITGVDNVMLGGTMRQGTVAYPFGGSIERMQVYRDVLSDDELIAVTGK
Protocol: as §2

[1] = tested on: RgCBM40 binding to LS174T MUC2; test: ELISA of RgCBM40 binding to LS174T MUC2 in competition with sugars; parameters: species or system Ruminococcus gnavus ATCC 29149; details: RgCBM40 preincubated with 1 mM free sugar overnight at 4 °C; immobilised LS174T MUC2; A450
Protocol: RgCBM40 binding to purified mucins was tested by ELISA. Mucins (100 μl of 10 μg ml^−1) were immobilised onto a high binding 96 well plate (Greiner, Stonehouse, UK) overnight at 4 °C. All subsequent steps were carried out for 1 h at room temperature. The plates were blocked with 3% (w/v) BSA, incubated with RgCBM40 (500 μg ml^−1), followed by an incubation with 1:5000 anti-RgNanH (raised in rabbit, Biogenes) then with 1:5000 anti-rabbit secondary antibody (raised in donkey) conjugated to peroxidase (GE Healthcare). Between each step, the plate was washed with 3 × 300 μl of PBS containing 0.05% (v/v) Tween 20 (PBST). Prior to detection, an additional wash step and 30 s incubation with PBST was carried out. Binding was detected using tetramethylbenzidine (TMB) visualisation solution (Biolegend, San Diego, CA, USA) which was incubated for 15 min. The reaction was stopped by addition of 2 M H2SO4 and absorbance measured at 450 nm using a plate-reader (Bench Marl Plus, Biorad), subtracting background readings at 570 nm. Negative controls including no RgCBM40 (subtracted from A450 value), no primary or no secondary antibody were carried out in parallel. For comparison between plates, values were normalised to the reading for LS174T MUC2 which was arbitrarily set at 100%. For enzymatic treatment of the mucin, LS174T MUC2 (2 mg ml^−1) was incubated with sialidases (2 µg ml^−1) overnight at 4 °C on a rotary wheel prior to immobilisation on the plate. For chemical treatment of mucin, LS174T MUC2 was incubated with 0.1 M trifluoroacetic acid (TFA) at 80 °C for 1 h, dialysed against ammonium bicarbonate (50 mM), lyophilised and redissolved in H2O. For the competition assays, RgCBM40 was incubated with 1 mM of free sugar overnight at 4 °C on a rotary wheel prior to addition to the ELISA plate as above. Experiments were carried out in triplicate.

RgCBM40 I95A = target: T4, RgCBM40 I95A (Mediterraneibacter gnavus (Ruminococcus gnavus), UniProt A7B557, I95A); test: ITC of sialoglycans binding to RgCBM40 mutant I95A; parameters: species or system Ruminococcus gnavus ATCC 29149; details: 173 µM protein, syringe 10 mM sugar (25 mM for Neu5Ac), * = estimate only
T4 sequence (A7B557 50-237 I95A): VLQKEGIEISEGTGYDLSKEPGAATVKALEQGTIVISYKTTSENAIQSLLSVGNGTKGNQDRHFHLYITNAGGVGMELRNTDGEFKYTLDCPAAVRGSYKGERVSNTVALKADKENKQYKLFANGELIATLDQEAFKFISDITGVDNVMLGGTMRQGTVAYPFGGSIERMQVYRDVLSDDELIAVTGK
Protocol: as §1, §2

RgCBM40 [2] = target: T5, RgCBM40 (Mediterraneibacter gnavus (Ruminococcus gnavus), UniProt A7B557); test: ITC of sialoglycans binding to RgCBM40 wild type; parameters: species or system Ruminococcus gnavus ATCC 29149; details: RgCBM40 WT
Protocol: as §2

RgCBM40 Y116A = target: T6, RgCBM40 Y116A (Mediterraneibacter gnavus (Ruminococcus gnavus), UniProt A7B557, Y116A); test: ITC of sialoglycans binding to RgCBM40 mutant Y116A; parameters: species or system Ruminococcus gnavus ATCC 29149
T6 sequence (A7B557 50-237 Y116A): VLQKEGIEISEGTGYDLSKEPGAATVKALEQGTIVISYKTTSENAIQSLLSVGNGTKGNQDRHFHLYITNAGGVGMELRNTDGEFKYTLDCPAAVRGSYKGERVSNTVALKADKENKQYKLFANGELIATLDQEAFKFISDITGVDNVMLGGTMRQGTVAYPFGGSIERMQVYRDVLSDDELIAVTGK
Protocol: as §1, §2

RgCBM40 E126A = target: T7, RgCBM40 E126A (Mediterraneibacter gnavus (Ruminococcus gnavus), UniProt A7B557, E126A); test: ITC of sialoglycans binding to RgCBM40 mutant E126A; parameters: species or system Ruminococcus gnavus ATCC 29149
T7 sequence (A7B557 50-237 E126A): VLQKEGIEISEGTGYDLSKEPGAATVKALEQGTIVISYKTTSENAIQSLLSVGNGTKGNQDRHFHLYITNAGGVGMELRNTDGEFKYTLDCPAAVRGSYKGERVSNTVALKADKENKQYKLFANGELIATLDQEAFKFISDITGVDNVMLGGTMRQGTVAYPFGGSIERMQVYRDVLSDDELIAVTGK
Protocol: as §1, §2

RgCBM40 [3] = target: T5, RgCBM40; test: STD NMR of sialoglycans with RgCBM40 WT; parameters: species or system Ruminococcus gnavus ATCC 29149; details: 1 mM sialoglycan, 50 μM RgCBM40 WT, 288 K; 'exception' = monosaccharides for which binding was not detected
Protocol: ^1H and ^13C resonance assignment for all the sugars was performed on the bases of 1D ^1H, 2D DQF-COSY, TOCSY, HSQC and NOESY experiments run on the free ligands in unbuffered D2O, pH 7.0. For STD NMR experiments, all the samples consisted of 1 mM sialoglycans and 50 μM RgCBM40 (WT or I95A mutant) in D2O buffer solution of 10 mM Tris-d11 pH 7.8 and 100 mM NaCl (ligand: protein ratio 20:1). An STD pulse sequence that included 2.5 ms and 5 ms trim pulses and a 3 ms spoil gradient was used. Saturation was achieved applying a train of 50 ms Gaussian pulses (0.40 mW) on the f2 channel, at 0.60 p.p.m. (on-resonance experiments) and 40 p.p.m. (off-resonance experiments). The broad protein signals were removed using a 40 ms spinlock (T1ρ) filter. All the experiments were recorded at ^1H frequency of 800.23 MHz on a Bruker Avance III spectrometer equipped with a 5 mm probe TXI 800 MHz H-C/N-D-05 Z BTO, at 288 K. For all the sialoglycans in the presence of RgCBM40, an STD experiment with a saturation time of 2 s and a relaxation delay of 5 s was performed, as a first test for binding. For the confirmed binders, the STD NMR experiments were carried out at different saturation times (0.5, 1, 2, 3, 4 and 5 s) with 1 K scans and relaxation delay of 5 s, in order to obtain the binding epitope mapping. The resulting build-up curves for each proton were fitted mathematically to a mono-exponential equation (y = a×[1-exp(b×x)]), from which the initial slopes (a×b) were obtained. For each ligand, the binding epitope mapping was obtained by dividing the initial slopes by the one of the H7 proton of the corresponding sialic acid ring, to which an arbitrary value of 100% was assigned. This normalisation of the STD values allows the comparison across all the sialoglycans.

RgCBM40 R204A = target: T8, RgCBM40 R204A (Mediterraneibacter gnavus (Ruminococcus gnavus), UniProt A7B557, R204A); test: ITC of sialoglycans binding to RgCBM40 mutant R204A; parameters: species or system Ruminococcus gnavus ATCC 29149
T8 sequence (A7B557 50-237 R204A): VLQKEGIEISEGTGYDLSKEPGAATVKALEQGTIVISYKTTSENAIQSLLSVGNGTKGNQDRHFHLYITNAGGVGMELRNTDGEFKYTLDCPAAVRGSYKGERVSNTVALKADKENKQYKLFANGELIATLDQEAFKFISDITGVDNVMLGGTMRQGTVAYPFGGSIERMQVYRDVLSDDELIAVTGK
Protocol: as §1, §2

[4] = target: T9, LS174T MUC2 treated with trifluoroacetic acid or a sialidase to remove sialic acid (human (endogenous in LS174T), UniProt Q02817 21-5289, O-glycans with sialic acid removed by TFA or by a sialidase from C. perfringens, S. typhimurium, A. muciniphila or R. gnavus; reduced with dithiothreitol and alkylated with iodoacetamide); test: ELISA; mucins (100 µl of 10 µg ml^-1) immobilised on a 96 well plate, RgCBM40 at 500 µg ml^-1 for 1 h at room temperature, detected with rabbit anti-RgNanH and a peroxidase-conjugated secondary antibody, A450; values normalised to LS174T MUC2 = 100%; details: both partners purified
T9 construct: MUC2, gel-forming mucin secreted by the human LS174T cell line; also called MUC2 treated chemically (TFA) or enzymatically with a sialidase (Cp, St, Am/Ak, Rg)

Q: Which results are given for `CC(=O)N[C@H]1[C@H]([C@H](O)[C@H](O)CO)OC(O)(C(=O)O)C[C@@H]1O` (stereo partly drawn) [Neu5Ac, N-acetylneuraminic acid]?
A: Binding by ITC (in words) (RgCBM40 R128A/R204A): abolished; Kd (RgCBM40 R128A/R204A; ITC): > 25 mM; Binding by ITC (in words) (RgCBM40 R128A): abolished; Kd (RgCBM40 R128A; ITC): > 25 mM; Binding by ITC (in words) (RgCBM40 Y210A): abolished; Kd (RgCBM40 Y210A; ITC): > 25 mM; Effect of free sugar on adherence of RgCBM40 to MUC2 [1]: no effect; Kd (RgCBM40 I95A): ~23 mM; Kd (RgCBM40 [2]; Kd, ITC in PBS, 115-230 μM protein in cell, syringe 10 mM sugar (25 mM for Neu5Ac), * = estimate only, Kd too high to determine): ~21 mM and ~20 mM; Binding to RgCBM40 (in words) (RgCBM40 [2]): weak binding; Binding by ITC (in words) (RgCBM40 Y116A): abolished; Kd (RgCBM40 Y116A; ITC): > 25 mM; Binding by ITC (in words) (RgCBM40 E126A): abolished; Kd (RgCBM40 E126A; ITC): > 25 mM; Binding to RgCBM40 detected by STD NMR (RgCBM40 [3]): exception; also recorded: no interaction was observed; Binding by ITC (in words) (RgCBM40 R204A): abolished; Kd (RgCBM40 R204A; ITC): > 25 mM

B1: RgCBM40 (residues 50–237 of RgNanH), preparation for all other protein assays (ELISA) (domain or fragment, Ruminococcus gnavus ATCC 29149, UniProt A7B557 50-237, looked up)
chain: VLQKEGIEISEGTGYDLSKEPGAATVKALEQGTIVISYKTTSENAIQSLLSVGNGTKGNQDRHFHLYITNAGGVGMELRNTDGEFKYTLDCPAAVRGSYKGERVSNTVALKADKENKQYKLFANGELIATLDQEAFKFISDITGVDNVMLGGTMRQGTVAYPFGGSIERMQVYRDVLSDDELIAVTGK
notes: in the ELISA it was detected with anti-RgNanH antiserum
Q: Does B1 bind [4]?
A: Result: binds
